Holding throughout (format): in vivo
One experiment relates to Phytophthora infestans. The experiment can be described thus: whole plant or invertebrate. To be noted: in Solanum lycopersicum, 96 h, read-out: Determination of control effect (preventive value).
Experiment [1] concerns Pseudoperonospora cubensis. The experiment is described as follows: Test of examining control effect on Pseudoperonospora cubensis (potted cucumber plants). To be noted: 96 h, 10% wettable powder adjusted to 125 ppm, 15 ml/pot sprayed on potted cucumber plants one day before spray inoculation, assessed after 1 day wet chamber and 3 days greenhouse, read-out: Determination of control effect (preventive value) on Pseudoperonospora cubensis. The procedure: (§1) Calculation of Preventive Value: Preventive value={(untreated lesion area rate−treated lesion area rate)/untreated lesion area rate}×100
(§2) Using the thus calculated preventive value, the control effect of each compound was determined in accordance with the following standards.
(§3) High control effect: 100%≧preventive value≧60%
(§4) Low control effect: 60%>preventive value≧0%
Using a spray gun, an agent solution prepared by adjusting a 10% wettable powder of each sample compound to 125 ppm (hereinafter referred to as a “sample agent solution”) was sprayed to potted cucumber plants (variety: Sagamihanjiro, 2.5 leave stage) in a concentration of 15 ml/pot. One day after the spraying, a conidial suspension of Pseudoperonospora cubensis (conidial concentration: 1.0×10^4 cells/ml) was applied to the plants by spray inoculation. After completion of the inoculation, the plants were left at 21° C. under wet chamber conditions for 1 day, and were then left in a greenhouse for 3 days, so that they were fully infected with the aforementioned disease. Thereafter, the disease level on each leaf was compared with that on an untreated leaf, and the control effect of each compound was determined in the same manner as in Example 3(1).

For a further experiment, the system named is Sphaerotheca fuliginea. The experiment can be described thus: Test of examining control effect on Sphaerotheca fuliginea (potted cucumber plants). Particulars: Podosphaera fuliginea, 336 h, 10% wettable powder adjusted to 125 ppm, 15 ml/pot sprayed on potted cucumber plants one day before spray inoculation, assessed after 14 days in greenhouse, read-out: Determination of control effect (preventive value) on Sphaerotheca fuliginea. The procedure:
as §1, §2, §3, §4
Using a spray gun, an agent solution prepared by adjusting a 10% wettable powder of each sample compound to 125 ppm (hereinafter referred to as a “sample agent solution”) was sprayed to potted cucumber plants (variety: Sagamihanjiro, 2nd leave stage) in a concentration of 15 ml/pot. One day after the spraying, a conidial suspension of Sphaerotheca fuliginea (conidial concentration: 1.0×10^5 cells/ml) was applied to the plants by spray inoculation. The plants were left in a greenhouse for 14 days, so that they were fully infected with the aforementioned disease. Thereafter, the disease level on each leaf was compared with that on an untreated leaf, and the control effect of each compound was determined in the same manner as in Example 3(1).

Read-outs that look alike come from different tables or passages of the source.

On to `Cc1ccc(C#CCCNc2ncnc3ccccc23)c(C)c1` [compound 180], for which the pest or weed control at 125 ppm in the experiment on Phytophthora infestans was in the range of 60 to 100%. Further, the pest or weed control at 125 µg/mL (in experiment [1]; in the experiment on Sphaerotheca fuliginea) was 60 to 100% in each case.
With `COCc1ccccc1C#CCC(C)Nc1ncnc2ccccc12` (stereo not drawn) [compound 278], the pest or weed control at 125 ppm with Phytophthora infestans lay in the range of 60 to 100%. Further, the pest or weed control at 125 µg/mL (in experiment [1]; in the experiment on Sphaerotheca fuliginea) was 60 to 100% in each case.
For `CC(CC#Cc1c(Cl)cccc1C(F)(F)F)Nc1ncnc2sccc12` (stereo not drawn) [compound 252], the pest or weed control at 125 ppm with Phytophthora infestans lay within 0 to 60%. Also, the pest or weed control at 125 µg/mL (in experiment [1]; with Sphaerotheca fuliginea) was 60 to 100% each time.
Regarding `COCc1ccccc1C#CCCNc1ncnc2cccc(F)c12` [compound 318], in the experiment on Phytophthora infestans, the pest or weed control at 125 ppm fell in the range of 60 to 100%. Moreover, the pest or weed control at 125 µg/mL (in experiment [1]; in the experiment on Sphaerotheca fuliginea) was 60 to 100% in each case.
With `CC(CC#Cc1ccc(F)cc1C(F)(F)F)Nc1ncnc2cc(F)ccc12` (stereo not drawn) [compound 347], in the experiment on Phytophthora infestans, the pest or weed control at 125 ppm lay within 0 to 60%. The pest or weed control at 125 µg/mL (in experiment [1]; in the experiment with Sphaerotheca fuliginea) was 60 to 100% each time.
As for `CC(CC#Cc1nccs1)Nc1ncnc2sccc12` (stereo not drawn) [compound 265], the pest or weed control at 125 ppm with Phytophthora infestans lay in the range of 60 to 100%. Also, the pest or weed control at 125 µg/mL (in experiment [1]; in the experiment on Sphaerotheca fuliginea) was 60 to 100% in each case.
`COc1cc(C#CCCNc2ncnc3ccccc23)ccn1` [compound 199]: the pest or weed control at 125 ppm with Phytophthora infestans lay in the range of 60 to 100%. Moreover, the pest or weed control at 125 µg/mL (in experiment [1]; in the experiment on Sphaerotheca fuliginea) was 60 to 100% throughout.
Regarding `CC(F)c1ncnc(NCCC#Cc2ccccc2)c1Br` (stereo not drawn) [compound 375], the pest or weed control at 125 ppm with Phytophthora infestans is 60 to 100%. The pest or weed control at 125 µg/mL (in experiment [1]; in the experiment with Sphaerotheca fuliginea) was 60 to 100% each time.
For `COCc1ccccc1C#CCCNc1ncnc2cc(F)ccc12` [compound 316], the pest or weed control at 125 ppm in the experiment on Phytophthora infestans lay in the range of 60 to 100%. For the same compound, the pest or weed control at 125 µg/mL (in experiment [1]; in the experiment with Sphaerotheca fuliginea) was 60 to 100% in each case.
On to `C(#Cc1csc(Oc2ccccc2)n1)CCNc1ncnc2ccccc12` [compound 227], for which, in the experiment on Phytophthora infestans, the pest or weed control at 125 ppm was 60 to 100%. In addition, the pest or weed control at 125 µg/mL (in experiment [1]; with Sphaerotheca fuliginea) was 60 to 100% throughout.
Consider `Cc1ccc(F)cc1C#CCCNc1ncnc2ccccc12` [compound 167], for which the pest or weed control at 125 ppm in the experiment with Phytophthora infestans was 0 to 60%. For the same compound, the pest or weed control at 125 µg/mL (in experiment [1]; in the experiment with Sphaerotheca fuliginea) was 60 to 100% in each case.
As for `FC(F)(F)c1ccccc1C#CCCNc1ncnc2c(Cl)cccc12` [compound 307], in the experiment on Phytophthora infestans, the pest or weed control at 125 ppm fell in the range of 0 to 60%. The pest or weed control at 125 µg/mL (in experiment [1]; in the experiment with Sphaerotheca fuliginea) was 60 to 100% throughout.
As to `FCc1ccccc1C#CCCNc1ncnc2ccccc12` [compound 99], the pest or weed control at 125 ppm in the experiment on Phytophthora infestans was in the range of 60 to 100%. In addition, the pest or weed control at 125 µg/mL (in experiment [1]; in the experiment with Sphaerotheca fuliginea) was 60 to 100% throughout.
On to `COCc1ccc(F)cc1C#CCCNc1ncnc2ccccc12` [compound 142], for which the pest or weed control at 125 ppm in the experiment on Phytophthora infestans was in the range of 60 to 100%. Also, the pest or weed control at 125 µg/mL (in experiment [1]; in the experiment on Sphaerotheca fuliginea) was 60 to 100% each time.
Regarding `COc1ccc2nc(C#CCCNc3ncnc4sccc34)sc2c1` [compound 85], in the experiment with Phytophthora infestans, the pest or weed control at 125 ppm was in the range of 60 to 100%. Also, the pest or weed control at 125 µg/mL (in experiment [1]; in the experiment on Sphaerotheca fuliginea) was 60 to 100% in each case.
Take `CCOC(=O)C(CC#Cc1ccccc1)Nc1ncnc2ccccc12` (stereo not drawn) [compound 303]: the pest or weed control at 125 ppm in the experiment with Phytophthora infestans is 0 to 60%. Also, the pest or weed control at 125 µg/mL in experiment [1] (in Cucumis sativus) was in the range of 60 to 100%; in the experiment with Sphaerotheca fuliginea (in Cucumis sativus), 0 to 60%.
Take `FC(F)OCc1ccccc1C#CCCNc1ncnc2ccccc12` [compound 134]: the pest or weed control at 125 ppm with Phytophthora infestans was 60 to 100%. In addition, the pest or weed control at 125 µg/mL (in experiment [1]; in the experiment with Sphaerotheca fuliginea) was 60 to 100% in each case.
For `Cc1nc(C#CCC(C)Nc2ncnc3sccc23)cs1` (stereo not drawn) [compound 266], the pest or weed control at 125 ppm in the experiment with Phytophthora infestans lay within 60 to 100%. Besides, the pest or weed control at 125 µg/mL (in experiment [1]; in the experiment on Sphaerotheca fuliginea) was 60 to 100% each time.
As to `C(#Cc1csc(Oc2ccccc2)n1)CCNc1ncnc2sccc12` [compound 83, 4-[4-(2-Phenoxythiazol-4-yl)-3-butynylamino]thieno[2,3-d]pyrimidine], in the experiment with Phytophthora infestans, the pest or weed control at 125 ppm lay within 0 to 60%. For the same compound, the pest or weed control at 125 µg/mL (in experiment [1]; in the experiment on Sphaerotheca fuliginea) was 60 to 100% in each case.
Consider `FCc1nc(C#CCCNc2ncnc3sccc23)cs1` [compound 68], for which the pest or weed control at 125 ppm with Phytophthora infestans is 60 to 100%. In addition, the pest or weed control at 125 µg/mL (in experiment [1]; in the experiment with Sphaerotheca fuliginea) was 60 to 100% in each case.
For the compound `O=Cc1nc(C#CCCNc2ncnc3sccc23)cs1` [compound 69], the pest or weed control at 125 ppm in the experiment with Phytophthora infestans was 60 to 100%. For the same compound, the pest or weed control at 125 µg/mL in experiment [1] was in the range of 60 to 100%; in the experiment with Sphaerotheca fuliginea it was 0 to 60%.
As to `CC(=O)c1ccc(C#CCCNc2ncnc3ccccc23)cc1` [compound 128], in the experiment with Phytophthora infestans, the pest or weed control at 125 ppm fell in the range of 60 to 100%. In addition, the pest or weed control at 125 µg/mL (in experiment [1]; with Sphaerotheca fuliginea) was 60 to 100% throughout.
Turning to `C(#Cc1cccs1)CCNc1ncnc2ccccc12` [compound 204], in the experiment on Phytophthora infestans, the pest or weed control at 125 ppm lay within 60 to 100%. Also, the pest or weed control at 125 µg/mL (in experiment [1]; in the experiment with Sphaerotheca fuliginea) was 60 to 100% in each case.
With `CC(CC#Cc1ccccc1)Nc1ncnc2ccccc12` (stereo not drawn) [compound 270], in the experiment on Phytophthora infestans, the pest or weed control at 125 ppm was in the range of 0 to 60%. Moreover, the pest or weed control at 125 µg/mL (in experiment [1]; with Sphaerotheca fuliginea) was 60 to 100% in each case.
As to `CSCc1ccccc1C#CCCNc1ncnc2ccccc12` [compound 152], the pest or weed control at 125 ppm in the experiment on Phytophthora infestans lay in the range of 0 to 60%. Further, the values for the pest or weed control at 125 µg/mL (in experiment [1]; in the experiment on Sphaerotheca fuliginea) were 60 to 100% and 0 to 60%, respectively.
For `COC(C)c1ccccc1C#CCCNc1ncnc2ccccc12` (stereo not drawn) [compound 137], the pest or weed control at 125 ppm in the experiment with Phytophthora infestans was 0 to 60%. The pest or weed control at 125 µg/mL (in experiment [1]; in the experiment with Sphaerotheca fuliginea) was 60 to 100% throughout.
In the case of `Cc1ncnc(NC(C)CC#Cc2ccc(Cl)cc2C(F)(F)F)c1I` (stereo not drawn) [compound 386], the pest or weed control at 125 ppm in the experiment on Phytophthora infestans lay in the range of 0 to 60%. For the same compound, the pest or weed control at 125 µg/mL (in experiment [1]; with Sphaerotheca fuliginea) was 60 to 100% each time.
As for `FC(F)(F)c1ccccc1C#CCCNc1ncnc2cccc(Cl)c12` [compound 310], the pest or weed control at 125 ppm in the experiment on Phytophthora infestans was in the range of 0 to 60%. In addition, the pest or weed control at 125 µg/mL (in experiment [1]; in the experiment with Sphaerotheca fuliginea) was 60 to 100% each time.
As to `Fc1ccccc1C#CCCNc1ncnc2sccc12` [compound 11], in the experiment on Phytophthora infestans, the pest or weed control at 125 ppm was in the range of 60 to 100%. Also, the pest or weed control at 125 µg/mL (in experiment [1]; in the experiment with Sphaerotheca fuliginea) was 60 to 100% each time.
Regarding `COCc1ccccc1C#CCCNc1ncnc2cccc(Cl)c12` [compound 314], in the experiment with Phytophthora infestans, the pest or weed control at 125 ppm was 0 to 60%. Moreover, the pest or weed control at 125 µg/mL (in experiment [1]; with Sphaerotheca fuliginea) was 60 to 100% in each case.
Regarding `COCc1ccc(C#CCCNc2ncnc3ccccc23)cc1` [compound 136], the pest or weed control at 125 ppm with Phytophthora infestans lay in the range of 0 to 60%. The pest or weed control at 125 µg/mL (in experiment [1]; in the experiment on Sphaerotheca fuliginea) was 60 to 100% each time.
On to `COCc1ccccc1C#CCCNc1ncnc2ccc(C#N)cc12` [compound 330], for which, in the experiment with Phytophthora infestans, the pest or weed control at 125 ppm was 60 to 100%. Also, the pest or weed control at 125 µg/mL in experiment [1] was in the range of 60 to 100%; in the experiment with Sphaerotheca fuliginea it was 0 to 60%.

Source of the values: patent publication US8586505B2 (SDS Biotech K. K., priority 2009, dated 2013).
